In US12240846B2 (Enliven Inc., priority 2020, dated 2025):
Structures can show the parent of a compound that is named as a salt.

Legend:
K562 cells = test: K562 cell proliferation assay (CellTiter-Glo); type: cell-based; details: Homo sapiens, K562 cell viability, 72 hours, read-out: Cell Line (IC50, nM) K562
Protocol: (§1) K562 and HL60 Cell Proliferation Assay
(§2) K562 and HL60 cells, cultured in Iscove's Modified Dulbecco's Media (IMDM) supplemented with 10% FBS, were harvested at 50-80% confluency and plated at 2,000 cells per well (K562) or 1,500 cells per well (HL60) in 384-well tissue culture plates. A subset of wells contained media only (low control, LC). […] The plates were placed in a 37° C. incubator with 5% CO2 for 72 hours. Cell viability was measured using a CellTiter-Glo luminescent cell viability assay (Promega), which allows for relative quantification of metabolically active cells by luminescence-based measurements of intracellular ATP concentrations. Briefly, plates were removed from the incubator and equilibrated for 15 minutes at room temperature prior to the addition of 40 μL of CellTiter-Glo reagent. Plates were then incubated for 30 minutes at room temperature. Luminescence was measured using an EnSpire plate reader (Perkin Elmer). As noted above, luminescence values from wells with DMSO only or media without cells were used as high and low controls (HC and LC), respectively. Normalized percent viability was calculated as follows: percent viability=100×(Lumsample−LumLC)/(LumHC−LumLC).

HL60 cells = test: HL60 cell proliferation assay (CellTiter-Glo); type: cell-based; details: Homo sapiens, HL-60, HL60 cell viability, 72 hours, read-out: Cell Line (IC50, nM) HL60
Protocol: as §1, §2

ABL1 = target: T1, ABL1 (Homo sapiens, UniProt P00519); test: Luminescence-based ABL kinase assay (300 μM ATP), ADP-Glo; type: biochemical
T1 construct: purchased Carna Biosciences
Source text: Compounds were serially diluted in DMSO. […] Luminescence signal positively correlates with kinase activity.

ABL1 (T315I) = ABL1 (T315I) (Homo sapiens, UniProt P00519, T315I); test: as above; type: biochemical
Protocol: Kinase activity of ABL1 was measured using the ADP-Glo system (Promega), which measures formation of ADP using a luminescence-based method. Compounds were serially diluted in DMSO. 20 nL of compound or DMSO only (high control, HC) were added to a 384-well plate (OptiPlate-384. PerkinElmer) using an Echo550 liquid handler (Labcyte). 15 μL of kinase solution (10 mM MgCl2, 0.01% Brij-35, 2 mM DTT, 0.05% BSA, 1 mM EGTA, 50 mM HEPES pH 7.5, and 3.325 nM ABL1 [Carna Biosciences]) were added to each well of the 384-well plate containing the compounds. No enzyme control wells were included (low control, LC). The plate was incubated at room temperature for 30 minutes. 5 μL of a second solution containing 10 mM MgCl2, 0.01% Brij-35, 2 mM DTT, 0.05% BSA, 1 mM EGTA, 50 mM HEPES pH 7.5, 6 μM Peptide 2 (Perkin Elmer, Cat No 760346), and 1.2 mM ATP were added to each well to start the kinase reaction. The plate was incubated for 90 minutes at room temperature. 20 μL of ADP-Glo reagent (Promega) were then added to each well and the plate was incubated for 40 minutes at room temperature. 40 μL of kinase detection reagent (Promega) was added to each well and the plate was incubated for an additional 45 minutes at room temperature. During this step, ADP was converted to ATP, a substrate for luciferase, to produce luminescence signal. Luminescence was measured on an Envision plate reader (Perkin Elmer). Luminescence signal positively correlates with kinase activity. The percent kinase activity was calculated as follows: percent kinase activity=100×(Lumsample−LumLC)/(LumHC−LumLC). As noted above, DMSO only and no enzyme wells were used as high and low controls, respectively. IC50 values were calculated using the XLFit software.

Row | SMILES | IC50 (K562 cells) [nM] | IC50 (HL60 cells) [nM] | IC50 (ABL1) [nM] | IC50 (ABL1 (T315I)) [nM]
1 | COc1cc2[nH]cnc2cc1-c1cc2cc(NC(=O)[C@@H]3C[C@@H]3F)ncc2n1C [Compound 28, (1S,2S)-2-fluoro-N-(2-(6-methoxy-1H-benzo[d]imidazol-5-yl)-1-methyl-1H-pyrrolo[2,3-c]pyridin-5-yl)cyclopropanecarboxamide formate] | 30.4 | 233 | 9.95 | 19.8
2 | CCOc1ncccc1-c1cc2cc(NC(=O)[C@@H]3C[C@@H]3F)ncc2n1C [Compound 36, (1S,2S)-N-[2-(2-ethoxypyridin-3-yl)-1-methylpyrrolo[2,3-c]pyridin-5-yl]-2-fluorocyclopropane-1-carboxamide] | 105 | 3630 | 6.33 | 308
3 | COc1ncc(F)cc1-c1c(C)c2cnc(NC(=O)[C@@H]3C[C@@H]3F)cc2n1C [Compound 57, (1S,2S)-2-fluoro-N-(2-(5-fluoro-2-methoxypyridin-3-yl)-1,3-dimethyl-1H-pyrrolo[3,2-c]pyridin-6-yl)cyclopropane-1-carboxamide] | 128 | 4270 | 111 | 83.7
4 | COc1nccc(C)c1-c1cc2cc(NC(=O)[C@@H]3C[C@@H]3F)ncc2n1C [Compound 59, (1S,2S)-2-fluoro-N-[2-(2-methoxy-4-methylpyridin-3-yl)-1-methylpyrrolo[2,3-c]pyridin-5-yl]cyclopropane-1-carboxamide] | 120 | 1460 | 40.2 | 40.7
5 | [2H]C([2H])([2H])n1c(-c2cccnc2OC)cc2cc(NC(=O)[C@@H]3C[C@@H]3F)ncc21 [Compound 64, (1S,2S)-2-fluoro-N-(2-(2-methoxypyridin-3-yl)-1-(methyl-d3)-1H-pyrrolo[2,3-c]pyridin-5-yl)cyclopropane-1-carboxamide] | 139 | 1610 | 32.5 | 47.8
6 | [2H]C([2H])([2H])n1c(-c2cc(F)cnc2OC)cc2cc(NC(=O)[C@@H]3C[C@@H]3F)ncc21 [Compound 65, (1S,2S)-2-fluoro-N-(2-(5-fluoro-2-methoxypyridin-3-yl)-1-(methyl-d3)-1H-pyrrolo[2,3-c]pyridin-5-yl)cyclopropane-1-carboxamide] | 217 | > 10000 | 49.2 | 47.6
7 | COc1ncc(Cl)cc1-c1cc2cc(NC(=O)[C@@H]3C[C@@H]3F)ncc2n1C [Compound 66, (1S,2S)-N-[2-(5-chloro-2-methoxypyridin-3-yl)-1-methylpyrrolo[2,3-c]pyridin-5-yl]-2-fluorocyclopropane-1-carboxamide] | 100 | 1750 | 25.4 | 68
8 | COc1cc2scnc2cc1-c1cc2cc(NC(=O)[C@@H]3C[C@@H]3F)ncc2n1C [Compound 70, (1S,2S)-2-fluoro-N-[2-(6-methoxy-1,3-benzothiazol-5-yl)-1-methylpyrrolo[2,3-c]pyridin-5-yl]cyclopropane-1-carboxamide] | 193 | 1030 | 87.4 | 316
9 | Cn1c(-c2cccc3[nH]cnc23)cc2cc(NC(=O)[C@@H]3C[C@@H]3F)ncc21 [Compound 73, (1S,2S)-N-[2-(1H-1,3-benzodiazol-4-yl)-1-methylpyrrolo[2,3-c]pyridin-5-yl]-2-fluorocyclopropane-1-carboxamide] | 3710 | > 10000 | 519 | 315
10 | COc1cc2[nH]ncc2cc1-c1cc2cc(NC(=O)[C@@H]3C[C@@H]3F)ncc2n1C [Compound 74, (1S,2S)-2-fluoro-N-[2-(6-methoxy-1H-indazol-5-yl)-1-methylpyrrolo[2,3-c]pyridin-5-yl]cyclopropane-1-carboxamide] | 44.7 | 59.6 | 19.6 | 30.2
11 | COc1ccccc1-c1cc2cc(NC(=O)NCCN3CCOCC3)ncc2n1C [Compound 80, 1-(2-(2-methoxyphenyl)-1-methyl-1H-pyrrolo[2,3-c]pyridin-5-yl)-3-(2-morpholinoethyl)urea] | 1610 | > 10000 | 155 | 193
12 | COc1cccc(OC)c1-c1cc2cc(NC(=O)NCCN3CCNCC3)ncc2n1C [Compound 81, 3-[2-(2,6-dimethoxyphenyl)-1-methylpyrrolo[2,3-c]pyridin-5-yl]-1-[2-(piperazin-1-yl)ethyl]urea] | 40.4 | > 10000 | 17.2 | 23.5

Now from value to compound:

Row | IC50 (K562 cells) [nM] | IC50 (HL60 cells) [nM] | IC50 (ABL1) [nM] | IC50 (ABL1 (T315I)) [nM] | SMILES
13 | 91.7 | 523 | 10.9 | 10.8 | COc1cccc(C)c1-c1cc2cc(NC(=O)[C@@H]3C[C@@H]3F)ncc2n1C [Compound 25, (1S,2S)-2-fluoro-N-[2-(2-methoxy-6-methylphenyl)-1-methylpyrrolo[2,3-c]pyridin-5-yl]cyclopropane-1-carboxamide]
14 | 258 | 800 | 52 | 22.2 | COc1c(-c2cc3cc(NC(=O)[C@@H]4C[C@@H]4F)ncc3n2C)ccc2[nH]cnc12 [Compound 29, (1S,2S)-2-fluoro-N-[2-(4-methoxy-1H-1,3-benzodiazol-5-yl)-1-methylpyrrolo[2,3-c]pyridin-5-yl]cyclopropane-1-carboxamide]
15 | 245 | 320 | 119 | 139 | COc1c(-c2cc3cc(NC(=O)[C@@H]4C[C@@H]4F)ncc3n2C)ccc2cn[nH]c12 [Compound 30, (1S,2S)-2-fluoro-N-(2-(7-methoxy-1H-indazol-6-yl)-1-methyl-1H-pyrrolo[2,3-c]pyridin-5-yl)cyclopropane-1-carboxamide]
16 | 208 | 3840 | 40.8 | 124 | COc1ncccc1-c1cc2cc(NC(=O)[C@H]3C[C@H]3F)ncc2n1C [Compound 34, (1R,2R)-2-fluoro-N-[2-(2-methoxypyridin-3-yl)-1-methylpyrrolo[2,3-c]pyridin-5-yl]cyclopropane-1-carboxamide]
17 | 317 | > 10000 | 50.2 | 24.7 | COc1ccccc1-c1c(C)c2cc(NC(=O)[C@@H]3C[C@@H]3F)ncc2n1C [Compound 43, (1S,2S)-2-fluoro-N-(2-(2-methoxyphenyl)-1,3-dimethyl-1H-pyrrolo[2,3-c]pyridin-5-yl)cyclopropane-1-carboxamide]
18 | 368 | > 10000 | 74.5 | 36 | COc1ccccc1-c1c(C)c2cc(NC(=O)[C@H]3C[C@H]3F)ncc2n1C [Compound 44, (1R,2R)-2-fluoro-N-[2-(2-methoxyphenyl)-1,3-dimethylpyrrolo[2,3-c]pyridin-5-yl]cyclopropane-1-carboxamide]
19 | 1360 | > 10000 | 244 | 548 | COc1ccccc1-c1c(C#N)c2cc(NC(=O)C3CC3)ncc2n1C [Compound 47, N-[3-cyano-2-(2-methoxyphenyl)-1-methylpyrrolo[2,3-c]pyridin-5-yl]cyclopropanecarboxamide]
20 | 85.8 | 808 | 31.7 | 4.48 | COc1ccccc1-c1[nH]c2cc(NC(=O)[C@@H]3C[C@@H]3F)ncc2c1C [Compound 48, (1S,2S)-2-fluoro-N-[2-(2-methoxyphenyl)-3-methyl-1H-pyrrolo[3,2-c]pyridin-6-yl]cyclopropane-1-carboxamide]
21 | 240 | 6200 | 198 | 141 | COc1ncccc1-c1c(C)c2cnc(NC(=O)[C@@H]3C[C@@H]3F)cc2n1C [Compound 56, (1S,2S)-2-fluoro-N-[2-(2-methoxypyridin-3-yl)-1,3-dimethylpyrrolo[3,2-c]pyridin-6-yl]cyclopropane-1-carboxamide]
22 | 718 | 6490 | 191 | 193 | COc1ncc(F)cc1-c1c(C)c2cc(NC(=O)[C@@H]3C[C@@H]3F)ncc2n1C [Compound 60, (1S,2S)-2-fluoro-N-[2-(5-fluoro-2-methoxypyridin-3-yl)-1,3-dimethylpyrrolo[2,3-c]pyridin-5-yl]cyclopropane-1-carboxamide]
23 | 576 | 4860 | 207 | 308 | COc1ncccc1-c1c(C)c2cc(NC(=O)[C@@H]3C[C@@H]3F)ncc2n1C [Compound 61, (1S,2S)-2-fluoro-N-(2-(2-methoxypyridin-3-yl)-1,3-dimethyl-1H-pyrrolo[2,3-c]pyridin-5-yl)cyclopropanecarboxamide]
24 | 207 | 5280 | 126 | 513 | COc1ncc(C#N)cc1-c1cc2cc(NC(=O)[C@@H]3C[C@@H]3F)ncc2n1C [Compound 67, (1S,2S)-N-[2-(5-cyano-2-methoxypyridin-3-yl)-1-methylpyrrolo[2,3-c]pyridin-5-yl]-2-fluorocyclopropane-1-carboxamide]
